ChEMBL document CHEMBL4251615, “Discovery of anilino-furo[2,3-d]pyrimidine derivatives as dual inhibitors of EGFR/HER2 tyrosine kinase and their anticancer activity” (Eur J Med Chem, 2018)

Key:
HCC 2998 = assay: Growth inhibition of human HCC2998 cells assessed as cell growth at 10 uM incubated for 48 hrs by sulforhodamine B assay relative to control; type: functional; conditions: HCC 2998, 48 h, read-out: Activity
MCF7 = assay: Growth inhibition of human MCF7 cells assessed as cell growth at 10 uM incubated for 48 hrs by sulforhodamine B assay relative to control; type: functional; conditions: MCF7, 48 h, read-out: Activity
HCT-116 = assay: Growth inhibition of human HCT116 cells assessed as cell growth at 10 uM incubated for 48 hrs by sulforhodamine B assay relative to control; type: functional; conditions: HCT-116, 48 h, read-out: Activity
SK-MEL-2 = assay: Growth inhibition of human SK-MEL-2 cells assessed as cell growth at 10 uM incubated for 48 hrs by sulforhodamine B assay relative to control; type: functional; conditions: SK-MEL-2, 48 h, read-out: Activity
HOP-92 = assay: Growth inhibition of human HOP92 cells assessed as cell growth at 10 uM incubated for 48 hrs by sulforhodamine B assay relative to control; type: functional; conditions: HOP-92, 48 h, read-out: Activity
MDA-MB-231 = assay: Growth inhibition of human MDA-MB-231 cells assessed as cell growth at 10 uM incubated for 48 hrs by sulforhodamine B assay relative to control; type: functional; conditions: MDA-MB-231, 48 h, read-out: Activity
SW-620 = assay: Growth inhibition of human SW620 cells assessed as cell growth at 10 uM incubated for 48 hrs by sulforhodamine B assay relative to control; type: functional; conditions: SW-620, 48 h, read-out: Activity
UO-31 = assay: Growth inhibition of human UO31 cells assessed as cell growth at 10 uM incubated for 48 hrs by sulforhodamine B assay relative to control; type: functional; conditions: UO-31, 48 h, read-out: Activity
[1] = target: Receptor tyrosine-protein kinase erbB-2 (Homo sapiens) (UniProt P04626); assay: Inhibition of recombinant human N-terminal GST-tagged HER2 (679 to 1255 residues) expressed in baculovirus infected Sf9 cells at 10 uM using poly[Glu:Tyr] (4:1) as substrate after 40 mins by Kinase-Glo plus luminescence assay relative to control
SK-MEL-28 = assay: Growth inhibition of human SK-MEL-28 cells assessed as cell growth at 10 uM incubated for 48 hrs by sulforhodamine B assay relative to control; type: functional; conditions: SK-MEL-28, 48 h, read-out: Activity
CAKI-1 = assay: Growth inhibition of human Caki1 cells assessed as cell growth at 10 uM incubated for 48 hrs by sulforhodamine B assay relative to control; type: functional; conditions: CAKI-1, 48 h, read-out: Activity
TK-10 = assay: Growth inhibition of human TK10 cells assessed as cell growth at 10 uM incubated for 48 hrs by sulforhodamine B assay relative to control; type: functional; conditions: TK-10, 48 h, read-out: Activity
CCRF-CEM = assay: Growth inhibition of human CCRF-CEM cells assessed as cell growth at 10 uM incubated for 48 hrs by sulforhodamine B assay relative to control; type: functional; conditions: read-out: Activity
SNB-75 = assay: Growth inhibition of human SNB75 cells assessed as cell growth at 10 uM incubated for 48 hrs by sulforhodamine B assay relative to control; type: functional; conditions: SNB-75, 48 h, read-out: Activity
M14 = assay: Growth inhibition of human M14 cells assessed as cell growth at 10 uM incubated for 48 hrs by sulforhodamine B assay relative to control; type: functional; conditions: M14, 48 h, read-out: Activity
RXF 393 = assay: Growth inhibition of human RXF393 cells assessed as cell growth at 10 uM incubated for 48 hrs by sulforhodamine B assay relative to control; type: functional; conditions: RXF 393, 48 h, read-out: Activity
SF-268 = assay: Growth inhibition of human SF268 cells assessed as cell growth at 10 uM incubated for 48 hrs by sulforhodamine B assay relative to control; type: functional; conditions: SF-268, 48 h, read-out: Activity
HT-29 = assay: Growth inhibition of human HT-29 cells assessed as cell growth at 10 uM incubated for 48 hrs by sulforhodamine B assay relative to control; type: functional; conditions: HT-29, 48 h, read-out: Activity
SF-295 = assay: Growth inhibition of human SF295 cells assessed as cell growth at 10 uM incubated for 48 hrs by sulforhodamine B assay relative to control; type: functional; conditions: SF-295, 48 h, read-out: Activity
NCI-H322M = assay: Growth inhibition of human NCI-H322M cells assessed as cell growth at 10 uM incubated for 48 hrs by sulforhodamine B assay relative to control; type: functional; conditions: read-out: Activity
Malme-3M = assay: Growth inhibition of human MALME-3M cells assessed as cell growth at 10 uM incubated for 48 hrs by sulforhodamine B assay relative to control; type: functional; conditions: read-out: Activity
RPMI-8226 = assay: Growth inhibition of human RPMI8226 cells assessed as cell growth at 10 uM incubated for 48 hrs by sulforhodamine B assay relative to control; type: functional; conditions: RPMI-8226, 48 h, read-out: Activity
A498 = assay: Growth inhibition of human A498 cells assessed as cell growth at 10 uM incubated for 48 hrs by sulforhodamine B assay relative to control; type: functional; conditions: A498, 48 h, read-out: Activity
SF-539 = assay: Growth inhibition of human SF539 cells assessed as cell growth at 10 uM incubated for 48 hrs by sulforhodamine B assay relative to control; type: functional; conditions: SF-539, 48 h, read-out: Activity
HCT-15 = assay: Growth inhibition of human HCT15 cells assessed as cell growth at 10 uM incubated for 48 hrs by sulforhodamine B assay relative to control; type: functional; conditions: HCT-15, 48 h, read-out: Activity
MDA-MB-468 = assay: Growth inhibition of human MDA-MB-468 cells assessed as cell growth at 10 uM incubated for 48 hrs by sulforhodamine B assay relative to control; type: functional; conditions: MDA-MB-468, 48 h, read-out: Activity
NCI-H226 = assay: Growth inhibition of human NCI-H226 cells assessed as cell growth at 10 uM incubated for 48 hrs by sulforhodamine B assay relative to control; type: functional; conditions: NCI-H226, 48 h, read-out: Activity

Receptor tyrosine-protein kinase erbB-2 (Homo sapiens), sequence (P04626 whole entry, the tested form may be a part): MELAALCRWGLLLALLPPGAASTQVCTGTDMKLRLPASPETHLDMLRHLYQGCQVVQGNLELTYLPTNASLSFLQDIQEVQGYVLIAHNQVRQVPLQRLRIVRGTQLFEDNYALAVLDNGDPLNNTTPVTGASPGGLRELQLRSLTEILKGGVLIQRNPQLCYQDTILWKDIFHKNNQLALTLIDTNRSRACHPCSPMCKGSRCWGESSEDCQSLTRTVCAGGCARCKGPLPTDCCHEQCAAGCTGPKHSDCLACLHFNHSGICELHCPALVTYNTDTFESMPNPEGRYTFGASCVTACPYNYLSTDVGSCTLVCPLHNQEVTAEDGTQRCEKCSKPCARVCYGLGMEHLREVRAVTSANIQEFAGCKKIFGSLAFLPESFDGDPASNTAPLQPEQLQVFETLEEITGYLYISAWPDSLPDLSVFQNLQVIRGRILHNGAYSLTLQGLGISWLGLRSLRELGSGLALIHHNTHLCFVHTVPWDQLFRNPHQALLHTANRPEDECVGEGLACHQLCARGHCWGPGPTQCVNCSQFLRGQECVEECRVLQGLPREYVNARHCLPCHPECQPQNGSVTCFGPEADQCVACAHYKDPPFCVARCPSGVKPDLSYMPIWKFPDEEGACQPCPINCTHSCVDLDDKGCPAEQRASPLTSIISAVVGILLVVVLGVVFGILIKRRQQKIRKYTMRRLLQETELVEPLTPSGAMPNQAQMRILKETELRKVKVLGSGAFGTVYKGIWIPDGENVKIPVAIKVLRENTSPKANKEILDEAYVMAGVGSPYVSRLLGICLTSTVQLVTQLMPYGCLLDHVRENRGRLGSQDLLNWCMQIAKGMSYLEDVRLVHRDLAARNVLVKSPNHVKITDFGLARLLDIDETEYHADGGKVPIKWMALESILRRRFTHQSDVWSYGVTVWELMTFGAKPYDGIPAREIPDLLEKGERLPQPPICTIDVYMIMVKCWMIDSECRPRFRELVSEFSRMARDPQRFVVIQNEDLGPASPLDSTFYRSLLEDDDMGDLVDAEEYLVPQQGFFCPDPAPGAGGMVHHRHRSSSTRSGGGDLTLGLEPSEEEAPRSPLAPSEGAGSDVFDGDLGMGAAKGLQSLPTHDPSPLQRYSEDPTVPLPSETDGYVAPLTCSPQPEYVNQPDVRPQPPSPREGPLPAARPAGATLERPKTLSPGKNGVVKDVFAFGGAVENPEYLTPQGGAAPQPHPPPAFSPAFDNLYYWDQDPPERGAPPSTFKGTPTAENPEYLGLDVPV

SMILES	growth at 10 µM (HCC 2998) [%]	growth at 10 µM (MCF7) [%]	growth at 10 µM (HCT-116) [%]	growth at 10 µM (SK-MEL-2) [%]	growth at 10 µM (HOP-92) [%]	growth at 10 µM (MDA-MB-231) [%]	growth at 10 µM (SW-620) [%]	growth at 10 µM (UO-31) [%]	inhibition [1] [%]	growth at 10 µM (SK-MEL-28) [%]	growth at 10 µM (CAKI-1) [%]	growth at 10 µM (TK-10) [%]	growth at 10 µM (CCRF-CEM) [%]	growth at 10 µM (SNB-75) [%]	growth at 10 µM (M14) [%]	growth at 10 µM (RXF 393) [%]	growth at 10 µM (SF-268) [%]	growth at 10 µM (HT-29) [%]	growth at 10 µM (SF-295) [%]	growth at 10 µM (NCI-H322M) [%]	also measured
CCOC(=O)c1c(C)oc2ncnc(Nc3ccc(OCc4cccc(F)c4)cc3)c12	108	99.3	78.1	102	104	101	88.9	85	19	96.9	80.1	82.7	91.2	119	97.5	116	98.8	92.7	82.7	101	growth at 10 µM (Malme-3M): 125%; growth at 10 µM (RPMI-8226): 104%; growth at 10 µM (A498): 91.6%; growth at 10 µM (SF-539): 94.4%; growth at 10 µM (HCT-15): 98.5%; growth at 10 µM (MDA-MB-468): 90.6%; growth at 10 µM (NCI-H226): 87.6%
CCOC(=O)c1c(C)oc2ncnc(Nc3ccc(OCc4ccc(Cl)cc4)cc3)c12	108	102	98.7	105	107	101	106	99.5	18	101	94	87.4	110	116	102	85.9	109	94.4	97.9	107	growth at 10 µM (Malme-3M): 123%; growth at 10 µM (RPMI-8226): 111%; growth at 10 µM (A498): 91.7%; growth at 10 µM (SF-539): 98.2%; growth at 10 µM (HCT-15): 108%; growth at 10 µM (MDA-MB-468): 89.8%; growth at 10 µM (NCI-H226): 98.8%
CCOC(=O)c1c(C)oc2ncnc(Nc3ccc(OCc4cccc(C)c4)cc3)c12	114	99.2	90.6	100	104	88.6	101	101	16	101	95.6	94.7	107	106	86.5	111	106	87.5	101	94	growth at 10 µM (Malme-3M): 126%; growth at 10 µM (RPMI-8226): 117%; growth at 10 µM (A498): 84.4%; growth at 10 µM (SF-539): 95.4%; growth at 10 µM (HCT-15): 99.5%; growth at 10 µM (MDA-MB-468): 106%; growth at 10 µM (NCI-H226): 101%
